Laboratory results from ChEMBL document CHEMBL5226282, “TLR2 Agonistic Small Molecules: Detailed Structure-Activity Relationship, Applications, and Future Prospects” (J Med Chem, 2021).

Assays:
[1] = biological target: Toll-like receptor 1/2 (Homo sapiens, UniProt O60603+Q15399); experiment: Agonist activity at TLR2/TLR1 in human THP-1 cells; format: cell-based
[2] = biological target: Toll-like receptor 1/2 (Mus musculus); experiment: Agonist activity at TLR2/TLR1 in mouse Macrophage cell line

Sequence of Toll-like receptor 1/2 (O60603 whole entry): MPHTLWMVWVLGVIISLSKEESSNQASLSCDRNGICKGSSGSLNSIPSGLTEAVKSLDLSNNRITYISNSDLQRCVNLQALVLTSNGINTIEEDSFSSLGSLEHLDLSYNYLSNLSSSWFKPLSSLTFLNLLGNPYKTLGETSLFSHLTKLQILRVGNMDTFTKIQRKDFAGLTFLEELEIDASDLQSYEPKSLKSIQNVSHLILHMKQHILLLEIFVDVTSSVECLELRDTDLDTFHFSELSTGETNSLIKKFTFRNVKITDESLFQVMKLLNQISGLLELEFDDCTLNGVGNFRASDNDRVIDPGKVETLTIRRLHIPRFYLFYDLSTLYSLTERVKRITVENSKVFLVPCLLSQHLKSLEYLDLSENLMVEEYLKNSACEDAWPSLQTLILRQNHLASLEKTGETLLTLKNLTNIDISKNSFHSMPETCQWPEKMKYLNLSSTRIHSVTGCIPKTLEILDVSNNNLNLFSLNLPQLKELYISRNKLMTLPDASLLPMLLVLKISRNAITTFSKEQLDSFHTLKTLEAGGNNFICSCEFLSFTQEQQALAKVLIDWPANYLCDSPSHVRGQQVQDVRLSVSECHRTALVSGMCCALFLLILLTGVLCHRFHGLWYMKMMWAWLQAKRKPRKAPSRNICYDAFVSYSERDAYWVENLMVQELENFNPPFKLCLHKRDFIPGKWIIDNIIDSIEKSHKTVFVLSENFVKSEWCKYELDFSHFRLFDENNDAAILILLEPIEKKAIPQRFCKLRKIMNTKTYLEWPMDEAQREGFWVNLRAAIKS
Sequence of Toll-like receptor 1/2 (Q15399 whole entry): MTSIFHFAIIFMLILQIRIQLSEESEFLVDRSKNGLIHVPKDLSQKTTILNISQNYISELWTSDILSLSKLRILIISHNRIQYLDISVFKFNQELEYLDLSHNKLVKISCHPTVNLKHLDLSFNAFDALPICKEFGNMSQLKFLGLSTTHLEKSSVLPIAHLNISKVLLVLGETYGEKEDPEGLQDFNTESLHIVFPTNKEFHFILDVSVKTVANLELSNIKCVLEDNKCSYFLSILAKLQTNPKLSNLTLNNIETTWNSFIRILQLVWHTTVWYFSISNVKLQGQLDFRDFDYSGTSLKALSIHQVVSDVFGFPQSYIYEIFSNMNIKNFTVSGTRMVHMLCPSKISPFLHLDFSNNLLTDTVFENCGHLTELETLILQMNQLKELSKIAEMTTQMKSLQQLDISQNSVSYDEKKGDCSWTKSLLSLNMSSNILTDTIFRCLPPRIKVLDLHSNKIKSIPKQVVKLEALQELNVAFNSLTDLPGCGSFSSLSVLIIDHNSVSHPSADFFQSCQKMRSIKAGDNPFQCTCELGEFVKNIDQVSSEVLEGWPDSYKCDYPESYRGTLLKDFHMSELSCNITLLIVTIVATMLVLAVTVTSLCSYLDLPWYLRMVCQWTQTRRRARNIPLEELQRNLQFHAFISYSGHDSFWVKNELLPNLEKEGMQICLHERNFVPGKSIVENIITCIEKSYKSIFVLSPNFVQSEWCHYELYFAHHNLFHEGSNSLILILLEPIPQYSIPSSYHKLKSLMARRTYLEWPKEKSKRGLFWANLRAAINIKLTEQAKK

SMILES | EC50 [1] [µM] | EC50 [2] [µM]
O=C(O)[C@@H]1CN(C(=O)c2ccc(C(=O)N3C[C@@H](C(=O)O)[C@H](C(=O)N[C@@H]4C[C@H]4c4ccccc4)C3)cc2)C[C@H]1C(=O)N[C@@H]1C[C@H]1c1ccccc1 | > 5 | > 5
CCCCCCNC(=O)[C@@H]1CN(C(=O)c2ccc(C(=O)N3C[C@@H](C(=O)N[C@H]4C[C@@H]4c4ccccc4)[C@H](C(=O)N[C@@H]4C[C@H]4c4ccccc4)C3)cc2)C[C@H]1C(=O)N[C@H]1C[C@@H]1c1ccccc1 | 0.00025 | 0.08
O=C(N[C@H]1C[C@@H]1c1ccccc1)[C@@H]1CN(C(=O)c2cccc3c(C(=O)N4C[C@@H](C(=O)N[C@H]5C[C@@H]5c5ccccc5)[C@H](C(=O)N[C@H]5C[C@@H]5c5ccccc5)C4)cccc23)C[C@H]1C(=O)N[C@H]1C[C@@H]1c1ccccc1 | > 5 | > 5
CCCCCCCCNC(=O)[C@@H]1CN(C(=O)c2ccc(C(=O)N3C[C@@H](C(=O)N[C@H]4C[C@@H]4c4ccccc4)[C@H](C(=O)N[C@@H]4C[C@H]4c4ccccc4)C3)cc2)C[C@H]1C(=O)N[C@H]1C[C@@H]1c1ccccc1 | 0.00033 | 0.54
O=C(N[C@H]1C[C@@H]1c1ccccc1)[C@@H]1CN(C(=O)c2ccc(C(=O)N3C[C@@H](C(=O)N[C@H]4C[C@@H]4c4ccccc4)[C@H](C(=O)N[C@H]4C[C@@H]4c4ccccc4)C3)c3ccccc23)C[C@H]1C(=O)N[C@H]1C[C@@H]1c1ccccc1 | > 5 | > 5
CCCCCCCCCCCCCCCCNC(=O)[C@@H]1CN(C(=O)c2ccc(C(=O)N3C[C@@H](C(=O)N[C@H]4C[C@@H]4c4ccccc4)[C@H](C(=O)N[C@@H]4C[C@H]4c4ccccc4)C3)cc2)C[C@H]1C(=O)NCCCCCCCCCCCCCCCC | 0.0025 | 1
CCCCCCCCCCCCCCNC(=O)[C@@H]1CN(C(=O)c2ccc(C(=O)N3C[C@@H](C(=O)NCCCCCCCCCCCCCC)[C@H](C(=O)NCCCCCCCCCCCCCC)C3)cc2)C[C@H]1C(=O)NCCCCCCCCCCCCCC | > 0.005 | > 0.005
O=C(N[C@H]1C[C@@H]1c1ccccc1)[C@@H]1CN(C(=O)Cc2cnc(CC(=O)N3C[C@@H](C(=O)N[C@H]4C[C@@H]4c4ccccc4)[C@H](C(=O)N[C@H]4C[C@@H]4c4ccccc4)C3)cn2)C[C@H]1C(=O)N[C@H]1C[C@@H]1c1ccccc1 | 0.13 | > 5
O=C(NCCc1ccc(F)cc1)[C@@H]1CN(C(=O)c2ccc(-c3ccc(C(=O)N4C[C@@H](C(=O)NCCc5ccc(F)cc5)[C@H](C(=O)NCCc5ccc(F)cc5)C4)cc3)cc2)C[C@H]1C(=O)NCCc1ccc(F)cc1 | > 5 | > 5
O=C(N[C@H]1C[C@@H]1c1ccccc1)[C@@H]1CN(C(=O)C#CC(=O)N2C[C@@H](C(=O)N[C@H]3C[C@@H]3c3ccccc3)[C@H](C(=O)N[C@H]3C[C@@H]3c3ccccc3)C2)C[C@H]1C(=O)N[C@H]1C[C@@H]1c1ccccc1 | > 5 | > 5
O=C(N[C@H]1C[C@@H]1c1ccccc1)[C@@H]1CN(C(=O)[C@@H]2CCC[C@H](C(=O)N3C[C@@H](C(=O)N[C@H]4C[C@@H]4c4ccccc4)[C@H](C(=O)N[C@H]4C[C@@H]4c4ccccc4)C3)C2)C[C@H]1C(=O)N[C@H]1C[C@@H]1c1ccccc1 | > 5 | > 5
O=C(N[C@H]1C[C@@H]1c1ccccc1)[C@@H]1CN(C(=O)[C@H]2CC[C@@H](C(=O)N3C[C@@H](C(=O)N[C@H]4C[C@@H]4c4ccccc4)[C@H](C(=O)N[C@H]4C[C@@H]4c4ccccc4)C3)CC2)C[C@H]1C(=O)N[C@H]1C[C@@H]1c1ccccc1 | > 5 | > 5
O=C(NCCc1ccc(F)cc1)[C@@H]1CN(C(=O)c2cccc(C(=O)N3C[C@@H](C(=O)NCCc4ccc(F)cc4)[C@H](C(=O)NCCc4ccc(F)cc4)C3)c2)C[C@H]1C(=O)NCCc1ccc(F)cc1 | > 5 | > 5
Nc1cc(C(=O)N2C[C@@H](C(=O)N[C@H]3C[C@@H]3c3ccccc3)[C@H](C(=O)N[C@H]3C[C@@H]3c3ccccc3)C2)ccc1C(=O)N1C[C@@H](C(=O)N[C@H]2C[C@@H]2c2ccccc2)[C@H](C(=O)N[C@H]2C[C@@H]2c2ccccc2)C1 | 0.001 | 0.14
COc1cc(C(=O)N2C[C@@H](C(=O)N[C@H]3C[C@@H]3c3ccccc3)[C@H](C(=O)N[C@H]3C[C@@H]3c3ccccc3)C2)ccc1C(=O)N1C[C@@H](C(=O)N[C@H]2C[C@@H]2c2ccccc2)[C@H](C(=O)N[C@H]2C[C@@H]2c2ccccc2)C1 | 0.03 | 0.25
CCCCNC(=O)[C@@H]1CN(C(=O)c2ccc(C(=O)N3C[C@@H](C(=O)NCCCC)[C@H](C(=O)NCCCC)C3)cc2)C[C@H]1C(=O)NCCCC | > 0.005 | > 0.005
O=C(NCCc1ccc(F)cc1)[C@@H]1CN(C(=O)[C@@H]2CCC[C@H](C(=O)N3C[C@@H](C(=O)NCCc4ccc(F)cc4)[C@H](C(=O)NCCc4ccc(F)cc4)C3)C2)C[C@H]1C(=O)NCCc1ccc(F)cc1 | > 5 | > 5
CCCCCCCCCCCCCCNC(=O)[C@@H]1CN(C(=O)c2ccc(C(=O)N3C[C@@H](C(=O)N[C@H]4C[C@@H]4c4ccccc4)[C@H](C(=O)N[C@@H]4C[C@H]4c4ccccc4)C3)cc2)C[C@H]1C(=O)NCCCCCCCCCCCCCC | 0.00017 | 0.01

SMILES | EC50 [1] [µM] | EC50 [2] [µM]
CCCCCCCCNC(=O)[C@@H]1CN(C(=O)c2ccc(C(=O)N3C[C@@H](C(=O)N[C@H]4C[C@@H]4c4ccccc4)[C@H](C(=O)N[C@@H]4C[C@H]4c4ccccc4)C3)cc2)C[C@H]1C(=O)NCCCCCCCC | 0.001 | 1
O=C(NCCc1ccc(F)cc1)[C@@H]1CN(C(=O)COCC(=O)N2C[C@@H](C(=O)NCCc3ccc(F)cc3)[C@H](C(=O)NCCc3ccc(F)cc3)C2)C[C@H]1C(=O)NCCc1ccc(F)cc1 | > 5 | > 5
O=C(N[C@H]1C[C@@H]1c1ccccc1)[C@@H]1CN(C(=O)c2ccc3cc(C(=O)N4C[C@@H](C(=O)N[C@H]5C[C@@H]5c5ccccc5)[C@H](C(=O)N[C@H]5C[C@@H]5c5ccccc5)C4)ccc3c2)C[C@H]1C(=O)N[C@H]1C[C@@H]1c1ccccc1 | 0.002 | 0.38
CCCCCCCCCCNC(=O)[C@@H]1CN(C(=O)c2ccc(C(=O)N3C[C@@H](C(=O)N[C@H]4C[C@@H]4c4ccccc4)[C@H](C(=O)N[C@@H]4C[C@H]4c4ccccc4)C3)cc2)C[C@H]1C(=O)N[C@H]1C[C@@H]1c1ccccc1 | 0.0001 | 0.65
O=C(N[C@H]1C[C@@H]1c1ccccc1)[C@@H]1CN(C(=O)COCC(=O)N2C[C@@H](C(=O)N[C@H]3C[C@@H]3c3ccccc3)[C@H](C(=O)N[C@H]3C[C@@H]3c3ccccc3)C2)C[C@H]1C(=O)N[C@H]1C[C@@H]1c1ccccc1 | > 5 | > 5
O=C(N[C@H]1C[C@@H]1c1ccccc1)[C@@H]1CN(C(=O)c2ccc(C(=O)N3C[C@@H](C(=O)N[C@H]4C[C@@H]4c4ccccc4)[C@H](C(=O)N[C@H]4C[C@@H]4c4ccccc4)C3)nc2)C[C@H]1C(=O)N[C@H]1C[C@@H]1c1ccccc1 | 0.004 | 0.27
O=C(NCCc1ccc(F)cc1)[C@@H]1CN(C(=O)c2ccc(C(=O)N3C[C@@H](C(=O)NCCc4ccc(F)cc4)[C@H](C(=O)NCCc4ccc(F)cc4)C3)cc2)C[C@H]1C(=O)NCCc1ccc(F)cc1 | 0.05 | > 5
O=C(N[C@H]1C[C@@H]1c1ccc(Br)cc1)[C@@H]1CN(C(=O)c2ccc(C(=O)N3C[C@@H](C(=O)N[C@H]4C[C@@H]4c4ccc(Br)cc4)[C@H](C(=O)N[C@@H]4C[C@H]4c4ccc(Br)cc4)C3)cc2)C[C@H]1C(=O)N[C@H]1C[C@@H]1c1ccc(Br)cc1 | 1.6 | > 5
O=C(NCCc1ccc(F)cc1)[C@@H]1CN(C(=O)[C@H]2CC[C@@H](C(=O)N3C[C@@H](C(=O)NCCc4ccc(F)cc4)[C@H](C(=O)NCCc4ccc(F)cc4)C3)CC2)C[C@H]1C(=O)NCCc1ccc(F)cc1 | > 5 | > 5
CCCCCCCCCCCCNC(=O)[C@@H]1CN(C(=O)c2ccc(C(=O)N3C[C@@H](C(=O)NCCCCCCCCCCCC)[C@H](C(=O)NCCCCCCCCCCCC)C3)cc2)C[C@H]1C(=O)NCCCCCCCCCCCC | > 0.005 | > 0.005
CCCCCCCCCCCCNC(=O)[C@@H]1CN(C(=O)c2ccc(C(=O)N3C[C@@H](C(=O)N[C@H]4C[C@@H]4c4ccccc4)[C@H](C(=O)N[C@@H]4C[C@H]4c4ccccc4)C3)cc2)C[C@H]1C(=O)N[C@H]1C[C@@H]1c1ccccc1 | 0.0001 | 0.0021
CCCCCCNC(=O)[C@@H]1CN(C(=O)c2ccc(C(=O)N3C[C@@H](C(=O)N[C@H]4C[C@@H]4c4ccccc4)[C@H](C(=O)N[C@@H]4C[C@H]4c4ccccc4)C3)cc2)C[C@H]1C(=O)NCCCCCC | 0.05 | 0.36
CCCCCCCCCCCCCCCCNC(=O)[C@@H]1CN(C(=O)c2ccc(C(=O)N3C[C@@H](C(=O)N[C@H]4C[C@@H]4c4ccccc4)[C@H](C(=O)N[C@@H]4C[C@H]4c4ccccc4)C3)cc2)C[C@H]1C(=O)N[C@H]1C[C@@H]1c1ccccc1 | 0.0005 | 0.0026
CCCCCCCCCCNC(=O)[C@@H]1CN(C(=O)c2ccc(C(=O)N3C[C@@H](C(=O)NCCCCCCCCCC)[C@H](C(=O)N[C@@H]4C[C@H]4c4ccccc4)C3)cc2)C[C@H]1C(=O)N[C@@H]1C[C@H]1c1ccccc1 | 0.035 | 1.1
O=C(N[C@H]1C[C@@H]1c1ccccc1)[C@@H]1CN(C(=O)c2cc(O)c(C(=O)N3C[C@@H](C(=O)N[C@H]4C[C@@H]4c4ccccc4)[C@H](C(=O)N[C@H]4C[C@@H]4c4ccccc4)C3)cc2O)C[C@H]1C(=O)N[C@H]1C[C@@H]1c1ccccc1 | 0.02 | > 5
COC(=O)[C@@H]1CN(C(=O)c2ccc(C(=O)N3C[C@@H](C(=O)N[C@H]4C[C@@H]4c4ccccc4)[C@H](C(=O)N[C@@H]4C[C@H]4c4ccccc4)C3)cc2)C[C@H]1C(=O)N[C@H]1C[C@@H]1c1ccccc1 | 0.015 | 0.64
O=C(N[C@H]1C[C@@H]1c1ccccc1)[C@@H]1CN(C(=O)c2ccc(C(=O)N3C[C@@H](C(=O)N[C@H]4C[C@@H]4c4ccccc4)[C@H](C(=O)N[C@H]4C[C@@H]4c4ccccc4)C3)c(Br)c2)C[C@H]1C(=O)N[C@H]1C[C@@H]1c1ccccc1 | > 5 | > 5
O=C(NCCc1ccc(F)cc1)[C@@H]1CN(C(=O)C/C=C/CC(=O)N2C[C@@H](C(=O)NCCc3ccc(F)cc3)[C@H](C(=O)NCCc3ccc(F)cc3)C2)C[C@H]1C(=O)NCCc1ccc(F)cc1 | > 5 | > 5
